Data published in publication PMC6923382, “Small molecules that inhibit TNF signalling by stabilising an asymmetric form of the trimer” (Nature Communications, 2019).
Where “and” joins values, the source holds several entries; their conditions need not be identical. Identical values can stand only once.

What was measured:
TNF (L57F) = target: T1, TNF (L57F) (Homo sapiens, UniProt P01375, L133F); assay: HEK reporter gene assay, L57F TNF; format: cell-based; details: 10 pM L57F TNF; HEK NFκΒ reporter
T1 construct: Human TNF (CID2043, UniProt P01375 residues 77–233); 6XHis-Smt3 (N, cleaved yes); host or cells: E. coli
T1 sequence (P01375 77-233 L133F): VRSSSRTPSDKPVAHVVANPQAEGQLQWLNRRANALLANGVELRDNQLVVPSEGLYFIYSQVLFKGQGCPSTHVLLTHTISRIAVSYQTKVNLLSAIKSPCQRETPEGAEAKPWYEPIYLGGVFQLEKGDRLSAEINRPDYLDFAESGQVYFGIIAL
Description: Stimulation of HEK-293 cells by TNF leads to activation of the NF-κB pathway. The HEK-Blue^TM CD40L SEAP (secreted embryonic alkaline phosphatase) reporter cell line used to determine TNF activity (InvivoGen, #hkb-CD40, cells were described as mycoplasma free when purchased and were tested using Mycoalert [Lonza] after each batch of assay vial preparation). Compounds were titrated in DMSO and pre-incubated with TNF at a concentration giving half maximal response (10 pM for human or 20 pM for mouse) or the anti-human TNFR1 agonist antibody (R&D Systems. #AF 225) for 1 h. Cells were added to the compound/stimulus mixture and further incubated for 18 h. SEAP was measured using the colorimetric substrate HEK-Blue Detect^TM or QUANTI-Blue^TM from InvivoGen. Percentage inhibitions for compound dilutions were calculated between a DMSO control and maximum inhibition (by excess anti-TNF biologic, or NF-κB inhibitor–TPCA-1 [Tocris #2559, R&D Systems]). The IC50 was determined as the point of inflexion between the fitted minimum and maximum of the compound dose response curve, calculated using 4PL fitted curve. Mean IC50s are reported as a mean of at least two experiments. Dose response curves for TNF and the anti-human TNFR1 agonist antibody are shown in Supplementary Fig. 9. […]
In this assay reduction is luminescence is due to cell killing by TNF and inhibition causes increased luminescence. […]

hTNF/hTNFR1 complex = target: T2, hTNF/hTNFR1 complex (Homo sapiens, UniProt P01375); assay: Analytical size exclusion chromatography of TNF:TNFR1 stoichiometry; format: biochemical
T2 construct: stabilise an asymmetrical form of the soluble TNF trimer; host or cells: BV (baculovirus) for hTNFR1
T2 sequence (P01375 77-233 limits assumed): as the sequence (P01375 77-233 L133F) above, with F57L counted along it
T2 sequence (P19438 43-184 partner limits assumed): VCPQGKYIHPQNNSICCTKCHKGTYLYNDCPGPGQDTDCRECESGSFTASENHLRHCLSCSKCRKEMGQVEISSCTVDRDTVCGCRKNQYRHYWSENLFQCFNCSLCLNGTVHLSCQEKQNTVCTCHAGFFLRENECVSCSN
Description: A stock of compound bound to human (h) TNF was prepared by pre-incubating hTNF (300 μM, molecular weight based on the homotrimer) overnight at 4 °C with UCB-5307 at a final concentration range from 90 μM to 690 μM, maintaining a constant DMSO concentration of 1%. The compound-bound hTNF was incubated for 1 h at 22 °C with hTNFR1 at a 3.2-fold molar excess over homotrimers (final concentrations: hTNFR1 240 μΜ, hTNF 75 µM). Identical samples were prepared with DMSO only, giving a final DMSO concentration of 0.25% for both sets of samples. Alternatively, a fully assembled hTNF/hTNFR1 complex (3 receptors per homotrimer) was formed by incubating hTNF with a 3.2-fold molar excess of hTNFR1 for 1 h at 22 °C. The TNF/TNFR1 complex was then incubated overnight at 4 °C with UCB-5307 at a final concentration range from 90 µM to 690 µM. Samples were subject to analytical size exclusion using HPLC. Injection volumes of 50 µL were separated on a TSK G3000SW L × I.D. 30 cm × 7.5 mm column (10 µm particle size) pre-equilibrated in 10 mM HEPES, pH 7.5, 150 mM NaCl.

TNF [1] = target: T3, TNF (Homo sapiens, UniProt P01375); assay: TNF reporter gene assay HEK-293, human TNF; format: cell-based; set-up: stabilise an asymmetrical form of the soluble TNF trimer; details: 10 pM wild-type TNF; HEK NFκΒ reporter
Description: Stimulation of HEK-293 cells by TNF leads to activation of the NF-κB pathway. The HEK-Blue^TM CD40L SEAP (secreted embryonic alkaline phosphatase) reporter cell line used to determine TNF activity (InvivoGen, #hkb-CD40, cells were described as mycoplasma free when purchased and were tested using Mycoalert [Lonza] after each batch of assay vial preparation). […] Cells were added to the compound/stimulus mixture and further incubated for 18 h. SEAP was measured using the colorimetric substrate HEK-Blue Detect^TM or QUANTI-Blue^TM from InvivoGen. […] The IC50 was determined as the point of inflexion between the fitted minimum and maximum of the compound dose response curve, calculated using 4PL fitted curve. Mean IC50s are reported as a mean of at least two experiments.
Target sequence in this assay (P01375 77-233 limits assumed): as the sequence (P01375 77-233 L133F) above, with F57L counted along it

TNF [2] = target: T3, TNF; assay: Thermal denaturation assay of thermal stability; format: binding; set-up: stabilise an asymmetrical form of the soluble TNF trimer
Description: A fluorescence probed thermal denaturation assay was performed to assess the effect of the compounds on the thermal stability of TNF (or other members of the TNF family) as a measure of compound binding. The reaction mixture contained 5 µL of 30× SYPRO® Orange dye (Invitrogen) and 5 µL of TNF (at 1 mg/mL), 37.5 μL PBS, pH 7.4 and 2.5 μL of compound (at 2 mM in DMSO). The mixture (10 µL) was dispensed in quadruplicate into a 384 PCR optical well plate and was run on a 7900HT Fast Real-Time PCR System ([…]). The PCR System heating device was set at 20 °C to 99 °C with a ramp rate of 1.1 °C min^−1; fluorescence changes in the wells were monitored by a CCD device. The fluorescence intensity increase was plotted as a function of temperature and the Tm calculated as the midpoint of this denaturation curve (determined as the point of inflection).
Target sequence in this assay (P01375 77-233 limits assumed): as the sequence (P01375 77-233 L133F) above, with F57L counted along it

TNF [3] = target: T3, TNF; assay: Biacore kinetics of binding; set-up: Human TNF (CID2043, UniProt P01375 residues 77–233); 6XHis-Smt3 (N, cleaved yes); host or cells: E. coli TOP10; details: SPR single-cycle, linked TNF with n-terminal HKH tag
Description: Surface plasmon resonance using a Biacore T100/T200 was used to measure the association rate constant (ka), the dissociation rate constant (kd) and the affinity (KD) of compounds. TNF (VCID 2043 Beryllium) was immobilised to approximately 5 kRU as described above and equilibrated for at least 5 h in HBS P + buffer with 5% DMSO. UCB-6876 was serially diluted from 187.5 µM, flowing over the immobilised TNF at 50 µL/min for 3 min before allowing full dissociation under flow for at least 6 min. […] […] The compounds were allowed to dissociate for 2 h under flow.
Target sequence in this assay (P01375 with tags, fused parts or gaps): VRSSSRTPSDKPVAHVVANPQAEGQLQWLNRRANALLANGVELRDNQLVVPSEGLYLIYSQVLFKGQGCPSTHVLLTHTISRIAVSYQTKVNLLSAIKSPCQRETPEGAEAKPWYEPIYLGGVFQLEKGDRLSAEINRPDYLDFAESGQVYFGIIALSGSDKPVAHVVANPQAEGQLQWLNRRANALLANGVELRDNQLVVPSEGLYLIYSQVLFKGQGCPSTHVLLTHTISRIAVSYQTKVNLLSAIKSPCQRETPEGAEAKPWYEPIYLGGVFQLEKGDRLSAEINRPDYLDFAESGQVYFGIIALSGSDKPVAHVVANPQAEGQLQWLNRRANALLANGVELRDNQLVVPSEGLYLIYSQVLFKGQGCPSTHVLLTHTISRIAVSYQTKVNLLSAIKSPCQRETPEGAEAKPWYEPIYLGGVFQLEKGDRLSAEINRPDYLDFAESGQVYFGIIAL

TNF [4] = target: T3, TNF; assay: Biacore SPR fragment binding to immobilised TNF; set-up: Human TNF (CID2043, UniProt P01375 residues 77–233); 6XHis-Smt3 (N, cleaved yes); host or cells: E. coli TOP10; details: SPR fragment screen; concentration-dependent response
Text: (§1) BIA (Biomolecular Interaction Analysis) uses SPR to measure the binding of compounds to a protein immobilised on a chip surface. For this purpose a Biacore A100/4000 (GE Healthcare) was used. A CM5 sensor was immobilised via amine coupling on flow cell 1 with human Fc antibody domain (10k response units; kRU) and TNFR-Fc captured (2.5 kRU), flow cell 2 TNF (11 kRU), flow cell 3 was left blank (for non-specific binding), flow cell 4 TNFR-Fc (10 kRU), and flow cell 5 goat anti-human Fc 16 kRU). The sensor surface was then equilibrated in HBS-P (10 mM HEPES pH 7.4, 0.15 M NaCl, 0.005% Surfactant P20, BIAcore, GE Healthcare) with 5% DMSO for at least 5 h. Compounds were diluted from 100 mM stocks into DMSO matched buffer and then flowed over the immobilised flow cells at a concentration of 250 µM at the maximum flow rate of 30 μL/min. Background subtraction binding curves were analysed using the Biacore A100 BIA evaluation software version 1.1 following standard procedures.
Target sequence in this assay (P01375 77-233): as the sequence (P01375 77-233 L133F) above, with F57L counted along it

[5] = tested on: TNFR1 extracellular domain and control proteins; assay: Biacore SPR binding to control surfaces; details: capture antibody plus TNFR1, capture antibody
Text: as §1

[6] = Dynamic light scattering (colloidal aggregation); format: physicochemical; details: 100 μM; no detergent; 25°C; n=5
Description: Dynamic light scattering (DLS) experiments have been performed with compounds […]
baseline control and positive control (miconazole at 100 μM) were included. The radius data […]
compound in the absence of detergent.
DLS data (Malvern Nano ZS). Each sample (150 μl) was measured 5 times in a low volume disposable sizing cuvette at 25°C using 173º non-invasive backscatter (NIBS). […]

mouse TNF = target: T4, mouse TNF (Mus musculus, UniProt P06804); assay: Mouse TNF induced neutrophil recruitment in vivo; details: Etanercept 30 mg/kg i.v.; mouse TNF; individual mice
T4 construct: stabilise an asymmetrical form of the soluble TNF trimer
T4 sequence (P06804 80-235 limits assumed): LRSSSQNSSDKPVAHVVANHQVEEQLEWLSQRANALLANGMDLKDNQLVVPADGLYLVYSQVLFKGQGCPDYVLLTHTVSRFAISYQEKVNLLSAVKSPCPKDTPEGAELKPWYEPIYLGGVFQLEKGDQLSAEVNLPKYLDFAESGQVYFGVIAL
Description: All in vivo studies were reviewed by an internal Ethical Review Body (ERB) and conducted in accordance with the Animals (Scientific Procedures) Act 1986, EU Directive 2010/63/EU. […] Anti-TNFα biologics, CDP571[21] (10 mg/kg) and etanercept (30 mg/kg), diluted in PBS, were dosed intravenously prior to human and mouse TNF challenge. Two hours after the TNF challenge, mice were sacrificed and the peritoneal cavity lavaged with 3 mL of FACS buffer. An aliquot (0.3 mL) of lavage fluid was used to assess the number CD45^+GR1^+ cells by flow cytometry. Briefly, the cells were treated with ACK lysis buffer, washed and suspended in FACS buffer prior to staining with FITC anti-mouse CD45 and PE anti-mouse GR1. Data are shown as mean ± standard error of the number of CD45^+GR-1^+ cells. Statistical significance (*p < 0.05, **p < 0.01, ****p < 0.0001) was determined using one-way ANOVA with Dunnett’s multiple comparison test.

[7] = target: T5, Mouse TNF (mouse), P06804; assay: native MS; human TNF pre-incubated (saturated) with UCB-6876, then mixed 1:1 with mouse TNF; 20 mM ammonium acetate, 4% DMSO in the compound stock; various time points; details: remark: other sources report otherwise
T5 chain: T4 sequence (P06804 80-235 limits assumed)

[8] = target: T5, Mouse TNF (mouse), P06804; assay: native MS; mouse and human TNF, each 20 µM in 20 mM ammonium acetate pH 7.4, mixed 1:1 and analysed at various time points; no compound; nanospray, Exactive Plus EMR; details: remark: other sources report otherwise

Molecule: Cc1ccc(C)c(Cn2c(C(O)c3ccncc3)nc3ccccc32)c1 (stereo not shown) [UCB-5307]
- inhibition of L57F TNF (TNF (L57F)): did not inhibit
- number of TNFR1 bound per hTNF trimer, hTNF preloaded with compound (hTNF/hTNFR1 complex; 90-690 μM compound overnight, then 3.2-fold excess hTNFR1): dose-dependent shift from three receptors bound to two
- effect on preformed hTNF/hTNFR1 complex (hTNF/hTNFR1 complex; 90-690 µM compound, 3.2-fold excess hTNFR1): dislodging one of the receptors
- inhibition of wild-type TNF (TNF [1]): inhibited
- Tm difference (hTNF + compound) - (hTNF+DMSO) (TNF [2]; DMSO 5%): 12.2 °C
- Tm (mean ± SD) (TNF [2]; hTNF + DMSO (5%) + compound, n=4 replicates): 72.9 ± 0.6 °C
- Tm1 Average (TNF [2]; inhouse hTNF 5% DMSO + compound, 4 wells): 72.9 °C
- Unreviewed - Tm1 (TNF [2]; single wells, inhouse hTNF 5% DMSO + compound, listed as 1445307-000, in °C): 72.4 and 73.5 and 73.2
- kd (off-rate) (TNF [3]): 5.76e-05 s⁻¹
- Kd (TNF [3]; read-out: KD): 9 nM

Molecule: Cc1ccccc1Cn1c(CO)nc2ccccc21 [UCB-6786]
- binding to immobilised TNF (TNF [4]): bound to TNF
- binding to TNFR1 and control proteins (selectivity) [5]: selectivity over the TNFR1 extracellular domain and control proteins
- colloidal aggregation (DLS radius) [6]: no evidence of colloidal aggregation

Molecule: Etanercept [reference compound]
- CD45+ GR-1+ cells/mL in the peritoneal cavity (mouse TNF): 6123.9 cells/mL and 7203.0 cells/mL and 3131.9 cells/mL and 6069.0 cells/mL and 1965.3 cells/mL

B1: Mouse TNF, P06804 80-235 (ligand)
chain: T4 sequence (P06804 80-235 limits assumed)
- stoichiometry N [7]: 3
- stoichiometry N [8]: 3
